How the values were obtained:
[1] = target: T1, Tyrosine-protein phosphatase non-receptor type 1 (Homo sapiens, UniProt P18031); test: Inhibition of human PTP1B catalytic domain expressed in Escherichia coli assessed as pNPP hydrolysis measured every 30 secs for 15 mins
T1 sequence (P18031 whole entry): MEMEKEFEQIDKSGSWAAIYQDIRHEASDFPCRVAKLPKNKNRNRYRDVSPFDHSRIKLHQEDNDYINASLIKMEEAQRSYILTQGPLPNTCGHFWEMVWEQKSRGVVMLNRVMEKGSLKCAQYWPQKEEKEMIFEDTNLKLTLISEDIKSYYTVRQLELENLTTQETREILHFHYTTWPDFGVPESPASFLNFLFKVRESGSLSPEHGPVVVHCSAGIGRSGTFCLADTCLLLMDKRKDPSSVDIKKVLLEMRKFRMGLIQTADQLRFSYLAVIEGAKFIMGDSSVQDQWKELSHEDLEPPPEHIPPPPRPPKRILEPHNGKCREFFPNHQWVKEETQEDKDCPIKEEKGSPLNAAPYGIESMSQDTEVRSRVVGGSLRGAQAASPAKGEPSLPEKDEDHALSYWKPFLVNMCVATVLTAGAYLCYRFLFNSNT

[2] = target: T1, Tyrosine-protein phosphatase non-receptor type 1; test: Inhibition of recombinant PTP1B (unknown origin) assessed as pNPP hydrolysis after 30 mins
[3] = target: T2, Tyrosine-protein phosphatase non-receptor type 2 (Homo sapiens, UniProt P17706); test: Inhibition of TCPTP (unknown origin) assessed as pNPP hydrolysis after 30 mins
T2 sequence (P17706 whole entry): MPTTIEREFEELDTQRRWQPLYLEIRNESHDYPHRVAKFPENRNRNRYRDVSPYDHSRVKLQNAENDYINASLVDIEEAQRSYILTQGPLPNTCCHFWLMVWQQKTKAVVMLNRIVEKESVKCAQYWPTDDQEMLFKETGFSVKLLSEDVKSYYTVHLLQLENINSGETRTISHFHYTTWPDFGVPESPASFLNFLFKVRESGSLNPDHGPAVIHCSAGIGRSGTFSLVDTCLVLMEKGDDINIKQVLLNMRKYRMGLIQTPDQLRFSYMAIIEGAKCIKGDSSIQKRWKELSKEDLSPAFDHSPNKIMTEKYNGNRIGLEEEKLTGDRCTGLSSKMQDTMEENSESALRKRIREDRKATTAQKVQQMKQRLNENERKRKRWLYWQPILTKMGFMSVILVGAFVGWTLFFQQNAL

[4] = target: Tyrosine-protein phosphatase non-receptor type 6 (Homo sapiens, UniProt P29350); test: Inhibition of SHP1 (unknown origin) using pNPP as substrate
Chain of Tyrosine-protein phosphatase non-receptor type 6 (P29350 whole entry): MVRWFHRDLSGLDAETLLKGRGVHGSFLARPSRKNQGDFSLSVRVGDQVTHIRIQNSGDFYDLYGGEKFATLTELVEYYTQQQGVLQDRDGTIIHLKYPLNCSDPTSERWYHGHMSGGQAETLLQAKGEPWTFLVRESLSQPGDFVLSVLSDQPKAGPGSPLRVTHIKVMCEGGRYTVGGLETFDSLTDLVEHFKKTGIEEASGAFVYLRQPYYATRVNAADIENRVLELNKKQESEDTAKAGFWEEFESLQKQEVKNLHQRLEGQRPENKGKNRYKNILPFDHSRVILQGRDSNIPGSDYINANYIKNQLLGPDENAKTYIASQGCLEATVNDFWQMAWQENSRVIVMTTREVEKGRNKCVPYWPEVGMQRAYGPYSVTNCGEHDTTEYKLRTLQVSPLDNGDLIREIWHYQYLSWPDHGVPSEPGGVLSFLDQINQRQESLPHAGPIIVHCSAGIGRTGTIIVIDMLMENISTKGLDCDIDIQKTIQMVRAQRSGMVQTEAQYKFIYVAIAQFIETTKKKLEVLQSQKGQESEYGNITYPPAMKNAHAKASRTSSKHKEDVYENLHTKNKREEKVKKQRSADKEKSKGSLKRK

Row | Compound | Ki [1] | IC50 [2] | IC50 [3] | IC50 [4]
1 | NC(=O)[C@H](Cc1ccc(C(F)(F)P(=O)(O)O)cc1)NC(=O)[C@H](Cc1ccccc1)NC(=O)Cc1ccc(C(F)(F)P(=O)(O)O)cc1 | 0.0017 µM |  |  | 
2 | CCOc1cc(NS(C)(=O)=O)c(OCC)cc1CNC(=O)Nc1ccccc1 |  | 0.537 µM |  | 
3 | CCOc1cc(NS(C)(=O)=O)c(OCC)cc1CNC(=O)Nc1ccc(C)cc1 |  | 0.309 µM | 5.19 µM | 
4 | CCOc1cc(NS(C)(=O)=O)c(OCC)cc1CNC(=O)Nc1ccc(Br)cc1 |  | 0.212 µM | 1.36 µM | 2.31 µM
5 | CCOc1cc(NS(C)(=O)=O)c(OCC)cc1CNC(=O)Nc1ccc(OC)cc1 |  | 0.203 µM |  | 9.08 µM
6 | CCOc1cc(NS(C)(=O)=O)c(OCC)cc1CNC(=O)Nc1cccc(OC)c1 |  | 2.73 µM |  | 
7 | CCOc1cc(NS(C)(=O)=O)c(OCC)cc1CNC(=O)Nc1ccc(OC)c(OC)c1 |  | 0.204 µM |  | 
8 | CCOc1cc(NS(C)(=O)=O)c(OCC)cc1CNC(=O)NCc1ccccc1 |  | 0.756 µM |  | 

From ChEMBL document CHEMBL3593243, “Discovery of novel, potent, selective and cellular active ADC type PTP1B inhibitors via fragment-docking-oriented de novel design” (Bioorg Med Chem, 2015)
